Results published in patent US9889183B2, “PKC activators and anticoagulant in regimen for treating stroke” (BLANCHETTE ROCKEFELLER NEUROSCIENCES INSTITUTE, priority 2010, dated 2018).

Test system: other PKC isoforms
Test: PKC isozyme specificity, other PKC isoforms
Assay type: biochemical
Details: data not shown
Description: Protein kinase C assay. Rat hippocampal cells were cultured and scraped in 0.2 ml homogenization buffer (20 mM Tris-HCl, pH 7.4, 50 mM NaF, 1 μg/ml leupeptin, and 0.1 mM PMSF) and homogenized by sonication a Marsonix microprobe sonicator (5 sec, 10 W). To measure PKC, 10 μl of cell homogenate or purified PKC isozyme (purchased from Calbiochem) was incubated for 15 min at 37° C. in the presence of 10 μM histones, 4.89 mM CaCl2, 1.2 μg/μl phosphatidyl-L-serine, 0.18 μg/μl 1,2-dioctanoyl-sn-glycerol, 10 mM MgCl2, 20 mM HEPES (pH 7.4), 0.8 mM EDTA, 4 mM EGTA, 4% glycerol, 8 μg/ml aprotinin, 8 μg/ml leupeptin, and 2 mM benzamidine. […][^γ32P]ATP was added and ^32P-phosphoprotein formation was measured by adsorption onto phosphocellulose as described previously. Nelson and Alkon, J. Neurochemistry (1995), vol. 65, pp. 2350-2357. For measurements of activation by BR-101 (DCP-LA) and similar compounds. PKC activity was measured in the absence of diacylglycerol and phosphatidylserine and PKC δ, ε, η, and μ were measured in the absence of added EGTA and CaCl2, as described by Kanno et al. (J. Lipid Res. 2006, vol. 47, pp. 1146-1150). […]
To determine their PKC isozyme specificity, fatty acid derivatives were preincubated with purified PKC for five minutes and the PKC activity was measured radiometrically.

CCCCCC1CC1CC1CC1CCCCCCCC(=O)O (stereo not shown) [BR-101, 2-[(2-pentylcyclopropyl)methyl]cyclopropaneoctanoic acid]
effects on the other PKC isoforms: relatively small effects
